From ChEMBL document CHEMBL5120927, “LEGO-Lipophosphonoxins: A Novel Approach in Designing Membrane Targeting Antimicrobials” (J Med Chem, 2022)

Columns and labels:
[1] = test system: Enterococcus faecalis; test: Antibacterial activity against Enterococcus faecalis ATCC 29212 = CCM 4224 assessed as inhibition of bacterial growth incubated for 24 hrs by microdilution assay; type: functional
[2] = test system: Staphylococcus aureus; test: Antibacterial activity against Staphylococcus aureus ATCC 29213 = CCM 4223 assessed as inhibition of bacterial growth incubated for 24 hrs by microdilution assay; type: functional
[3] = test system: Staphylococcus aureus; test: Antibacterial activity against Staphylococcus aureus ATCC 29213 = CCM 4223 assessed as inhibition of bacterial growth incubated for 24 hrs in presence of BSA by microdilution assay; type: functional
[4] = test system: Escherichia coli; test: Antibacterial activity against Escherichia coli ATCC 25922 = CCM 3954 assessed as inhibition of bacterial growth incubated for 24 hrs by microdilution assay; type: functional
[5] = test system: Escherichia coli; test: Antibacterial activity against Escherichia coli ATCC 25922 = CCM 3954 assessed as inhibition of bacterial growth incubated for 24 hrs in presence of BSA by microdilution assay; type: functional
[6] = test system: Pseudomonas aeruginosa; test: Antibacterial activity against Pseudomonas aeruginosa ATCC 27853 = CCM 3955 assessed as inhibition of bacterial growth incubated for 24 hrs by microdilution assay; type: functional
[7] = Hemolytic activity in human RBC assessed as haemoglobin release measured after 3 hr; type: toxicity, cell-based, Erythrocyte; conditions: red blood cells (erythrocytes)
[8] = Gradient chromatographic hydrophobicity index of the compound at pH 3.7 by HPLC analysis; type: ADME
[9] = test system: Staphylococcus epidermidis; test: Antibacterial activity against Staphylococcus epidermidis CCM 7221 assessed as inhibition of bacterial growth incubated for 24 hrs by microdilution assay; type: functional
[10] = test system: Staphylococcus aureus; test: Antibacterial activity against methicillin resistant Staphylococcus aureus 4591/A assessed as reduction in microbial growth incubated for 24 hrs by microdilution assay; type: functional
[11] = test system: Escherichia coli; test: Antibacterial activity against multidrug-resistant Escherichia coli CE5556 expressing CTX-M-15 assessed as reduction in microbial growth incubated for 24 hrs by microdilution assay; type: functional
[12] = test system: Enterococcus faecium; test: Antibacterial activity against vancomycin resistant Enterococcus faecium 419/ANA assessed as reduction in microbial growth incubated for 24 hrs by microdilution assay; type: functional
[13] = test system: Pseudomonas aeruginosa; test: Antibacterial activity against multidrug-resistant Pseudomonas aeruginosa assessed as reduction in microbial growth incubated for 24 hrs by microdilution assay; type: functional
[14] = test system: Staphylococcus aureus; test: Antibacterial activity against wild type Staphylococcus aureus 4557/A assessed as reduction in microbial growth incubated for 24 hrs by microdilution assay; type: functional
[15] = test system: Staphylococcus aureus; test: Antibacterial activity against […] Staphylococcus aureus 4463/A assessed as reduction in microbial growth incubated for 24 hrs by microdilution assay; type: functional
[16] = test system: Staphylococcus aureus; test: Antibacterial activity against wild type Staphylococcus aureus 4904/C assessed as reduction in microbial growth incubated for 24 hrs by microdilution assay; type: functional
[17] = test system: Staphylococcus aureus; test: Antibacterial activity against wild type Staphylococcus aureus 4883/C assessed as reduction in microbial growth incubated for 24 hrs by microdilution assay; type: functional
[18] = test system: Staphylococcus aureus; test: Antibacterial activity against […] Staphylococcus aureus 4460/A assessed as reduction in microbial growth incubated for 24 hrs by microdilution assay; type: functional
[19] = test system: Staphylococcus aureus; test: Antibacterial activity against wild type Staphylococcus aureus 4482/A assessed as reduction in microbial growth incubated for 24 hrs by microdilution assay; type: functional
[20] = test system: Staphylococcus aureus; test: Antibacterial activity against wild type Staphylococcus aureus 4566/A assessed as reduction in microbial growth incubated for 24 hrs by microdilution assay; type: functional
[21] = test system: Staphylococcus aureus; test: Antibacterial activity against wild type Staphylococcus aureus 4504/A assessed as reduction in microbial growth incubated for 24 hrs by microdilution assay; type: functional
[22] = test system: Staphylococcus aureus; test: Antibacterial activity against wild type Staphylococcus aureus 4740/B assessed as reduction in microbial growth incubated for 24 hrs by microdilution assay; type: functional
[23] = test system: Staphylococcus aureus; test: Antibacterial activity against wild type Staphylococcus aureus 4717/B assessed as reduction in microbial growth incubated for 24 hrs by microdilution assay; type: functional
[24] = test system: Staphylococcus aureus; test: Antibacterial activity against wild type Staphylococcus aureus 4738/B assessed as reduction in microbial growth incubated for 24 hrs by microdilution assay; type: functional
[25] = test system: Staphylococcus aureus; test: Antibacterial activity against […] Staphylococcus aureus 4461/A assessed as reduction in microbial growth incubated for 24 hrs by microdilution assay; type: functional
[26] = test system: Staphylococcus aureus; test: Antibacterial activity against wild type Staphylococcus aureus 4679/B assessed as reduction in microbial growth incubated for 24 hrs by microdilution assay; type: functional
[27] = test system: Staphylococcus aureus; test: Antibacterial activity against wild type Staphylococcus aureus 4502/A assessed as reduction in microbial growth incubated for 24 hrs by microdilution assay; type: functional
[28] = test system: Staphylococcus aureus; test: Antibacterial activity against wild type Staphylococcus aureus 4515/A assessed as reduction in microbial growth incubated for 24 hrs by microdilution assay; type: functional
[29] = test system: Staphylococcus aureus; test: Antibacterial activity against wild type Staphylococcus aureus 5079/C assessed as reduction in microbial growth incubated for 24 hrs by microdilution assay; type: functional
[30] = test system: Staphylococcus aureus; test: Antibacterial activity against wild type Staphylococcus aureus 4788/B assessed as reduction in microbial growth incubated for 24 hrs by microdilution assay; type: functional
[31] = test system: Staphylococcus aureus; test: Antibacterial activity against wild type Staphylococcus aureus 78/CF assessed as reduction in microbial growth incubated for 24 hrs by microdilution assay; type: functional
[32] = test system: Staphylococcus aureus; test: Antibacterial activity against wild type Staphylococcus aureus 77/CF assessed as reduction in microbial growth incubated for 24 hrs by microdilution assay; type: functional
[33] = test system: Staphylococcus aureus; test: Antibacterial activity against wild type Staphylococcus aureus 4561/A assessed as reduction in microbial growth incubated for 24 hrs by microdilution assay; type: functional
[34] = test system: Staphylococcus aureus; test: Antibacterial activity against wild type Staphylococcus aureus 4968/C assessed as reduction in microbial growth incubated for 24 hrs by microdilution assay; type: functional
[35] = Toxicity in rabbit assessed as clinical sign at 10 to 200 mg/kg, po; type: organism-based, Oryctolagus cuniculus; conditions: in vivo, dose 10-200 mg/kg
[36] = Toxicity in rabbit assessed as clinical sign at 0.5 to 15 mg/kg, sc; type: organism-based, Oryctolagus cuniculus; conditions: in vivo, dose 0.5-15 mg/kg
[37] = Toxicity in rabbit assessed as pathological changes in necropsy at 10 to 200 mg/kg, po; type: organism-based, Oryctolagus cuniculus; conditions: in vivo, dose 10-200 mg/kg
[38] = Toxicity in rabbit assessed as pathological changes in necropsy at 0.5 to 15 mg/kg, sc; type: organism-based, Oryctolagus cuniculus; conditions: in vivo, dose 0.5-15 mg/kg
[39] = test system: Staphylococcus aureus; test: microbe, parasite or virus in culture; conditions: 4862/C, 24 h
Description: Antibacterial activity against wild type Staphylococcus aureus 4862/C assessed as reduction in microbial growth incubated for 24 hrs by microdilution assay

[40] = test system: Staphylococcus aureus; test: microbe, parasite or virus in culture; conditions: 4880/C, 24 h
Description: Antibacterial activity against wild type Staphylococcus aureus 4880/C assessed as reduction in microbial growth incubated for 24 hrs by microdilution assay

[41] = test system: Staphylococcus aureus; test: microbe, parasite or virus in culture; conditions: 5017/C, 24 h
Description: Antibacterial activity against wild type Staphylococcus aureus 5017/C assessed as reduction in microbial growth incubated for 24 hrs by microdilution assay

Compound `CCCC/C=C\CCOP(=O)(CCN(CCCN)CCCN)OCCCCCOP(=O)(CCN(CCCN)CCCN)OCC/C=C\CCCC.Cl.Cl.Cl.Cl.Cl.Cl` (stereo unspecified) has an MIC [1] of 32 µg/mL, an MIC [2] of 2 µg/mL and an MIC [3] of 8 µg/mL. It also gave an MIC [4] of 8 µg/mL, an MIC [5] of 4 µg/mL and an MIC [6] of 32 µg/mL. It also gave an HC50 at 3 h [7] of 70 µg/mL, a CHI [8] of 33.3 and an MIC [9] of 0.5 µg/mL. For the same compound, the MIC [10] was 2 µg/mL, the MIC [11] was 4 µg/mL and the MIC [12] was 128 µg/mL. It also gave an MIC [13] of 32 µg/mL, an MIC [14] of 2 µg/mL and an MIC [15] of 4 µg/mL. For the same compound, the MIC [16] was 4 µg/mL, the MIC [17] was 2 µg/mL and the MIC [18] was 4 µg/mL. The MIC [19] was 4 µg/mL, the MIC [20] was 4 µg/mL and the MIC [21] was 4 µg/mL. The MIC [22] was 4 µg/mL, the MIC [23] was 2 µg/mL and the MIC [24] was 4 µg/mL. It also gave an MIC [25] of 4 µg/mL, an MIC [26] of 4 µg/mL and an MIC [27] of 4 µg/mL. The MIC [28] was 4 µg/mL, the MIC [29] was 4 µg/mL and the MIC [30] was 4 µg/mL. It also gave an MIC [31] of 8 µg/mL, an MIC [32] of 4 µg/mL and an MIC [33] of 4 µg/mL. The MIC [34] was 4 µg/mL, the Activity [35] was “Non-Toxic” and the Activity [36] was “Non-Toxic”. The Activity [37] was “Non-Toxic”, the Activity [38] was “Non-Toxic” and the MIC [39] was 4 µg/mL. The MIC [40] was 4 µg/mL and the MIC [41] was 4 µg/mL.
